pIC50, pKi: −log10 of the molar value. Read-outs that look alike come from different tables or passages of the source.
Experiments:
[1] = molecular target: T1, human CCR2B (Homo sapiens (Human), UniProt P41597); test: Inhibition of [125I]-labeled MCP-1 binding to hCCR2B (radioligand binding in CHO cells)
Excerpt: (§1) CHO cells expressing human CCR2B were generated as follows. cDNA for human CCR2B (cloned from human blood) was cloned into plasmid pcDNA3.1 (from Invitrogen). The resulting plasmids were separately transfected into CHO cells expressing human Gα16 (from Molecular Devices). […] CHO cells expressing rat CCR2 were generated as follows. cDNA for rat CCR2 (cloned from rat macrophage) was cloned into plasmid pEF-flag (from Chinese Academy of Science). The resulting plasmids were transfected into CHO cells expressing human Gα16 (from […]).
Inhibition of [^125I]-Labeled MCP-1 Binding to hCCR2B
Radioligand binding assays were performed in CHO cells expressing human CCR2B and Gα16 coupling protein. All compounds were dissolved in DMSO and assays run at a final DMSO concentration of 0.5% (v/v). [^125I]-labeled human MCP-1 was purchased from PerkinElmer. Unlabelled human MCP-1 was purchased from PeproTech.
Compounds were serially diluted in DMSO before diluting into assay buffer (25 mM HEPES, pH 7.4, 5 mM MgCl2, 1 mM CaCl2, 0.5% BSA) with cryo preserved CHO cells expressing human CCR2B and the Gα16 coupling protein (30×10^3/well) and [^125I]-MCP-1 (50 pM). The reaction was incubated at room temperature for 90 minutes before transferring to GF/C filter membrane (PerkinElmer) pre-treated with 0.3% polyethyleneimine for 2 hours at 4° C. The filter membrane was washed six times with ice cold wash buffer (25 mM HEPES, pH 7.4, 5 mM MgCl2, 1 mM CaCl2, 500 mM NaCl, 0.01% (m/v) azide), dried, and sealed in a RLB sample bag (Agilent Technologies) before adding 5.0 mL Microscint 20 to each bag. Membrane was counted on Microbeta counter where background binding was determined by the presence of 100 nM MCP-1 and control total binding was determined by addition of DMSO in place of the test compound. The radioactivity values (cpm) were used to calculate the percent inhibition at a given compound concentration and the data fit to a sigmoidal curve in a semi-log plot to determine IC50 values. The corresponding Ki value is calculated as follows:
Ki=IC50/(1+[radioligand]/Kd), where [radioligand] is the concentration of the label and Kd (dissociation constant) is determined in saturation experiment with different concentrations of labeled MCP-1.

[2] = molecular target: rat CCR2 (Rattus norvegicus (Rat), UniProt O55193); test: Inhibition of native agonist (rat MCP-1)-induced intracellular calcium release, calcium flux assay in CHO cells expressing rat CCR2 and Gα16; type: cell-based; settings: read-out: rCCR2 Kb
Excerpt: as §1
(§2) Inhibition of Native Agonist-Induced Intracellular Calcium Release in Cells Expressing hCCR2B or rCCR2
(§3) Calcium flux assays were performed in CHO cells expressing human CCR2B and Gα16 coupling protein, or rat CCR2 and Gα16 coupling protein. All compounds were dissolved in DMSO and assays run at a final DMSO concentration of 0.25% (v/v). Human MCP-1 was purchased from PeproTech and used at a final assay concentration of 2 nM, while rat MCP-1 was purchased from R&D and used at a final assay concentration of 4 nM. Assays with cells expressing human CCR2B were performed with human MCP-1, while assays with cells expressing rat CCR2 were performed with rat MCP-1.
(§4) Briefly, cells were cultured overnight in a microtiter plate at 8000 per well. The next day, the resultant adherent cells were incubated in assay buffer (20 mM HEPES, pH 7.4, 0.1% bovine serum albumin, and 2.5 mM probenocid in Hank's Buffered Saline Solution) containing Calcium 4 dye (Molecular Probes) at 37° C. for 60 minutes. Calcium flux assays were performed on a FLIPR^Tetra instrument (Molecular Devices) by adding compound to the cells followed by addition of native agonist and measuring the change in fluorescence as a function of time. Maximal and minimal values for fluorescence were determined using native agonist (2 nM MCP-1) for human or rat CCR2, or buffer addition, respectively. Fluorescence values were used to calculate the percent inhibition at a given compound concentration and the data fit to a sigmoidal curve in a semi-log plot to determine IC50 values. The Kb value is calculated as Kb=IC50/(1+[agonist]/EC50), where [agonist] is the concentration of agonist used and EC50 is the agonist potency determined in the previous experiments. Mean Kb values and IC50 of the compounds assayed are reported in Table 2 and Table 3 respectively.

[3] = molecular target: T1, human CCR2B; test: Inhibition of native agonist (human MCP-1)-induced intracellular calcium release, calcium flux assay in CHO cells expressing human CCR2B and Gα16; type: cell-based; settings: for pIC50: read-out: hCCR2B IC50; for Kb: read-out: hCCR2B Kb
Excerpt: as §1, §2, §3, §4

[4] = mean Ki, [125I]-MCP-1 50 pM, CHO cells expressing human CCR2B and Gα16

T1 sequence (P41597 other isoform, or with tags, fused parts or gaps): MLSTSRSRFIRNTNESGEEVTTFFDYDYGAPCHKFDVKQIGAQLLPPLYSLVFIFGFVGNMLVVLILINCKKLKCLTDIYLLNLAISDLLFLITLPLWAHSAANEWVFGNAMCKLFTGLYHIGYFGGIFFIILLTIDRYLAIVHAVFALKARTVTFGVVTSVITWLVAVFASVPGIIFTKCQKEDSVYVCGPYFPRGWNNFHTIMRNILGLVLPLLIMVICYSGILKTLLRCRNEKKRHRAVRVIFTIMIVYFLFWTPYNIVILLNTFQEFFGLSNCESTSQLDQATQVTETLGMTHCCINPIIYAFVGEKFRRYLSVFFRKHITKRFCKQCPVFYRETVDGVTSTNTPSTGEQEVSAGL
Sequence of rat CCR2 (O55193 whole entry): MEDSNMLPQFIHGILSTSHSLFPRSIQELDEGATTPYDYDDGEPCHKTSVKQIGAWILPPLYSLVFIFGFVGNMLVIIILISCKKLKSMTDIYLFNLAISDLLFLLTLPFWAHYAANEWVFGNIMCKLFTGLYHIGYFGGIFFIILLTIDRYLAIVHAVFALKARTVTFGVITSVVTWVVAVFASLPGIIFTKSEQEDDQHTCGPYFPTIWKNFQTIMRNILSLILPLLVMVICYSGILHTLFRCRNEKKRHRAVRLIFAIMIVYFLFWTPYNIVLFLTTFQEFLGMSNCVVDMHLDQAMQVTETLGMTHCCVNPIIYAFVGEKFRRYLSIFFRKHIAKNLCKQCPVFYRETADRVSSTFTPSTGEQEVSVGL

SMILES	pKi [1]	Kb [2] [nM]	pIC50 ([3]; calcium flux, human MCP-1 2 nM)	Kb [3] [nM]	pKi [1, 4]	pIC50 [3]
CO[C@@H]1COCC[C@@H]1N[C@@H]1C[C@H]2CCC[C@@]2(C(=O)N2C[C@@H]3C[C@H]2CN3c2ccc(C#N)c(C(F)(F)F)c2)C1 (racemic) [Example 39, 1,5-anhydro-3-{[(2R,3aR,6aR)-3a-({(1S,4S)-5-[4-cyano-3-(trifluoromethyl)phenyl]-2,5-diazabicyclo[2.2.1]hept-2-yl}carbonyl)octahydropentalen-2-yl]amino}-2,3-dideoxy-4-O-methyl-D-erythro-pentitol]	7.18	3	7.26	14	–	–
CO[C@@H]1COCC[C@H]1N[C@@H]1C[C@H]2CCC[C@@]2(C(=O)N2C[C@@H]3C[C@H]2CN3c2cc(C(F)(F)F)ccn2)C1 [Example 1, 1,5-anhydro-2,3-dideoxy-4-O-methyl-3-{[(2R,3aR,6aR)-3a-({(1S,4S)-5-[4-(trifluoromethyl)pyridin-2-yl]-2,5-diazabicyclo[2.2.1]hept-2-yl}carbonyl)octahydropentalen-2-yl]amino}-D-threo-pentitol]	–	23	7.26	14	7.49	–
CO[C@@H]1COCC[C@@H]1N[C@@H]1C[C@H]2CCC[C@@]2(C(=O)N2C[C@@H]3C[C@H]2CN3c2cc(C(F)(F)F)ccn2)C1 [Example 2, 1,5-anhydro-2,3-dideoxy-4-O-methyl-3-{[(2R,3aR,6aR)-3a-({(1S,4S)-5-[4-(trifluoromethyl)pyridin-2-yl]-2,5-diazabicyclo[2.2.1]hept-2-yl}carbonyl)octahydropentalen-2-yl]amino}-D-erythro-pentitol]	–	12	7.12	19	7.22	–
CO[C@@H]1COCC[C@@H]1N(C)[C@@H]1C[C@H]2CCC[C@@]2(C(=O)N2C[C@@H]3C[C@H]2CN3c2cc(C(F)(F)F)ccn2)C1 [Example 7, 1,5-anhydro-2,3-dideoxy-4-O-methyl-3-{methyl[(2R,3aR,6aR)-3a-({(1S,4S)-5-[4-(trifluoromethyl)pyridin-2-yl]-2,5-diazabicyclo[2.2.1]hept-2-yl}carbonyl)octahydropentalen-2-yl]amino}-D-erythro-pentitol]	–	10	7.18	16	7.52	–
CO[C@@H]1COCC[C@@H]1N[C@@H]1C[C@H]2CCC[C@@]2(C(=O)N2C[C@@H]3C[C@H]2CN3c2ccc(F)c(C(F)(F)F)c2)C1 [Example 15, 1,5-anhydro-2,3-dideoxy-3-{[(2R,3aR,6aR)-3a-({(1S,4S)-5-[4-fluoro-3-(trifluoromethyl)phenyl]-2,5-diazabicyclo[2.2.1]hept-2-yl}carbonyl)octahydropentalen-2-yl]amino}-4-O-methyl-D-erythro-pentitol]	–	3	–	9	7.54	7.46
CO[C@@H]1COCC[C@@H]1N[C@@H]1C[C@H]2CCC[C@@]2(C(=O)N2C[C@@H]3C[C@H]2CN3c2cc(C(F)(F)F)ccc2C)C1 [Example 16, 1,5-anhydro-2,3-dideoxy-4-O-methyl-3-{[(2R,3aR,6aR)-3a-({(1S,4S)-5-[2-methyl-5-(trifluoromethyl)phenyl]-2,5-diazabicyclo[2.2.1]hept-2-yl}carbonyl)octahydropentalen-2-yl]amino}-D-erythro-pentitol]	–	7	–	26	6.70	6.97
CO[C@@H]1COCC[C@@H]1N[C@@H]1C[C@H]2CCC[C@@]2(C(=O)N2C[C@@H]3C[C@H]2CN3c2cccc(C(F)(F)F)c2)C1 [Example 18, 1,5-anhydro-2,3-dideoxy-4-O-methyl-3-{[(2R,3aR,6aR)-3a-({(1S,4S)-5-[3-(trifluoromethyl)phenyl]-2,5-diazabicyclo[2.2.1]hept-2-yl}carbonyl)octahydropentalen-2-yl]amino}-D-erythro-pentitol]	–	6	7.12	19	6.68	–
CO[C@@H]1COCC[C@@H]1N[C@@H]1C[C@H]2CCC[C@@]2(C(=O)N2C[C@@H]3C[C@H]2CN3c2ccc(C)c(C(F)(F)F)c2)C1 [Example 19, 1,5-anhydro-2,3-dideoxy-4-O-methyl-3-{[(2R,3aR,6aR)-3a-({(1S,4S)-5-[4-methyl-3-(trifluoromethyl)phenyl]-2,5-diazabicyclo[2.2.1]hept-2-yl}carbonyl)octahydropentalen-2-yl]amino}-D-erythro-pentitol]	–	12	6.63	57	6.51	–
CO[C@@H]1COCC[C@@H]1N[C@@H]1C[C@H]2CCC[C@@]2(C(=O)N2C[C@@H]3C[C@H]2CN3c2ccc(F)c(Cl)c2)C1 [Example 20, 1,5-anhydro-3-{[(2R,3aR,6aR)-3a-{[(1S,4S)-5-(3-chloro-4-fluorophenyl)-2,5-diazabicyclo[2.2.1]hept-2-yl]carbonyl}octahydropentalen-2-yl]amino}-2,3-dideoxy-4-O-methyl-D-erythro-pentitol]	–	18	6.74	45	6.95	–
CO[C@@H]1COCC[C@@H]1N[C@@H]1C[C@H]2CCC[C@@]2(C(=O)N2C[C@@H]3C[C@H]2CN3c2cccc(C(F)(F)F)n2)C1 [Example 22, 1,5-anhydro-2,3-dideoxy-4-O-methyl-3-{[(2R,3aR,6aR)-3a-({(1S,4S)-5-[6-(trifluoromethyl)pyridin-2-yl]-2,5-diazabicyclo[2.2.1]hept-2-yl}carbonyl)octahydropentalen-2-yl]amino}-D-erythro-pentitol]	–	12	6.82	38	6.92	–
CO[C@@H]1COCC[C@@H]1N[C@@H]1C[C@H]2CCC[C@@]2(C(=O)N2C[C@@H]3C[C@H]2CN3c2cc(F)cc(C(F)(F)F)c2)C1 [Example 25, 1,5-anhydro-2,3-dideoxy-3-{[(2R,3aR,6aR)-3a-({(1S,4S)-5-[3-fluoro-5-(trifluoromethyl)phenyl]-2,5-diazabicyclo[2.2.1]hept-2-yl}carbonyl)octahydropentalen-2-yl]amino}-4-O-methyl-D-erythro-pentitol]	–	5	7.04	23	6.57	–
CO[C@@H]1COCC[C@@H]1N[C@@H]1C[C@H]2CCC[C@@]2(C(=O)N2C[C@@H]3C[C@H]2CN3c2ccnc(C(F)(F)F)c2)C1 [Example 26, 1,5-anhydro-2,3-dideoxy-4-O-methyl-3-{[(2R,3aR,6aR)-3a-({(1S,4S)-5-[2-(trifluoromethyl)pyridin-4-yl]-2,5-diazabicyclo[2.2.1]hept-2-yl}carbonyl)octahydropentalen-2-yl]amino}-D-erythro-pentitol]	–	22	6.22	147	6.10	–
CO[C@@H]1COCC[C@@H]1N[C@@H]1C[C@H]2CCC[C@@]2(C(=O)N2C[C@@H]3C[C@H]2CN3c2ccnc(C(F)(F)F)n2)C1 [Example 27, 1,5-anhydro-2,3-dideoxy-4-O-methyl-3-{[(2R,3aR,6aR)-3a-({(1S,4S)-5-[2-(trifluoromethyl)pyrimidin-4-yl]-2,5-diazabicyclo[2.2.1]hept-2-yl}carbonyl)octahydropentalen-2-yl]amino}-D-erythro-pentitol]	–	19	6.41	96	6.35	–

Reference: patent US8906911B2, “Chemokine receptor antagonists” (AbbVie Inc., priority 2012, dated 2014)
